Measurements as given in patent publication EP0334164A2, “Antihypertensive combination preparation” (F. HOFFMANN-LA ROCHE AG, priority 1988, dated 1989).

Experiments:
[1] = system: gesunde männliche Probanden; test: Double-blind 4-way crossover study, 7-day treatment periods, blood pressure and pulse in healthy volunteers; type: in vivo, human; conditions: for Diastolische Blutdruckwerte am 7. Versuchstag, Mittelwert / Systolische Blutdruckwerte am 7. Versuchstag, Mittelwert: mean of 6 Probanden, day 7, lying, 2,5 mg Cilazapril and/or 120 mg Propranolol daily; for Abfall des systolischen und diastolischen Blutdrucks: Monotherapie (2,5 mg Cilazapril or 120 mg Propranolol), day 7, healthy volunteers
Method: […] Proband […], wurde vor Beginn der Studie von jedem Probanden die […], und man […] Kontrollen verbunden war: […] Die Probanden hatten jeweils an den Versuchstagen 0 bis 6 […] zu […] Abend […] noch geraucht. Nach 5-minütiger Ruhepause im Sitzen wurden systolischer und diastolischer Blutdruck und Puls […] die Probanden […], und man […] unter Ueberwachung die Medikation mit 100 ml Leitungswasser und […] Hause. Am […] Probanden […]; die Untersuchungen […] bei 15° erhobenem Oberkörper durchgeführt. Nach jeweils 15-minütiger […] und Puls zu den Zeitpunkten -2, 1, 2, 6, 8 und 24 Stunden gemessen.

[2] = system: Patienten mit einer essentiellen Hypertonie; test: Crossover study, 3-week treatment periods, sitting blood pressure in hypertensive patients; type: in vivo, human; conditions: 3 weeks treatment, 2,5 mg Cilazapril and/or 120 mg Propranolol; for mittlere Senkung des diastolischen Blutdrucks: 2 Stunden after dosing, sitting, 13 patients; for Ansprechen (Senkung des diastolischen Blutdrucks auf unter 90 mmHg): number of responders
Method: B) Zehn männliche und drei weibliche Patienten mit einer essentiellen Hypertonie im Alter von 43-62 Jahren und mit einem Gewicht von 64-106 kg nahmen an dieser Crossover-Studie teil, die folgende drei Behandlungsabschnitte von jeweils 3 Wochen umfasste, wobei die Abschnitte (1) und (2) je nach Gruppe vertauscht waren: • (1) 2,5 mg Cilazapril • (2) 120 mg Propranolol • (3) 2,5 mg Cilazapril plus 120 mg Propranolol.
Mit Ausnahme von drei Patienten erhielt keiner während mindestens 2 Wochen vor Beginn einer zweiwöchigen Placebo-Behandlung eine blutdrucksenkende Medikation. […] Dann wurden die Patienten wahlweise in zwei Gruppen eingeteilt, wobei die eine Gruppe zuerst mit Cilazapril und die andere zuerst mit Propranolol behandelt wurde. Nach der dreiwöchigen Behandlungsdauer wurde die Medikation in den beiden Gruppen ausgetauscht. Während der Behandlungsabschnitte wurden alle Messungen 2 Stunden nach Verabreichung durchgeführt, wobei der Blutdruck jeweils im Sitzen gemessen wurde.
Als "Ansprechen" auf eine Therapie wurde in dieser Studie eine Senkung des diastolischen Blutdrucks auf unter 90 mmHg defineriert.

[3] = system: Patienten, deren Bluthochdruck mit Captopril behandelt wird; conditions: added to Captopril treatment; Amery et al., Clinical Science 61 (1981); cited from earlier work

SMILES: CCOC(=O)[C@H](CCc1ccccc1)N[C@H]1CCCN2CCC[C@@H](C(=O)O)N2C1=O [Cilazapril, 9(S)-[1-(S)-Aethoxycarbonyl-3-phenylpropylamino]octahydro-10-oxo-6H-pyridazo[1,2-a]-[1,2]diazepin-1(S)-carbonsäure]
- Diastolische Blutdruckwerte am 7. Versuchstag, Mittelwert ([1]; 1 Std): 72 mmHg
- Systolische Blutdruckwerte am 7. Versuchstag, Mittelwert ([1]; 1 Std): 109 mmHg
- Diastolische Blutdruckwerte am 7. Versuchstag, Mittelwert ([1]; 2 Std): 69 mmHg
- Systolische Blutdruckwerte am 7. Versuchstag, Mittelwert ([1]; 2 Std): 104 mmHg
- Diastolische Blutdruckwerte am 7. Versuchstag, Mittelwert ([1]; 6 Std): 63 mmHg
- Systolische Blutdruckwerte am 7. Versuchstag, Mittelwert ([1]; 6 Std): 107 mmHg
- Diastolische Blutdruckwerte am 7. Versuchstag, Mittelwert ([1]; 8 Std): 66 mmHg
- Systolische Blutdruckwerte am 7. Versuchstag, Mittelwert ([1]; 8 Std): 108 mmHg
- Diastolische Blutdruckwerte am 7. Versuchstag, Mittelwert ([1]; 24 Std): 74 mmHg
- Systolische Blutdruckwerte am 7. Versuchstag, Mittelwert ([1]; 24 Std): 118 mmHg
- Diastolische Blutdruckwerte am 7. Versuchstag, Mittelwert ([1]; -2 Std): 73 mmHg
- Systolische Blutdruckwerte am 7. Versuchstag, Mittelwert ([1]; -2 Std): 109 mmHg
- Abfall des systolischen und diastolischen Blutdrucks [1]: ca. 7 mmHg
- Zunahme der Herzfrequenz ([1]; Monotherapie, 2,5 mg Cilazapril, day 7): ca. 5 Schläge/Minute
- mittlere Senkung des diastolischen Blutdrucks [2]: 8 mmHg
- Ansprechen (Senkung des diastolischen Blutdrucks auf unter 90 mmHg) [2]: 4 von 13 Patienten

SMILES: CC(C)NCC(O)COc1cccc2ccccc12 (stereo not drawn) [Propranolol]
- Diastolische Blutdruckwerte am 7. Versuchstag, Mittelwert ([1]; 1 Std): 63 mmHg
- Systolische Blutdruckwerte am 7. Versuchstag, Mittelwert ([1]; 1 Std): 106 mmHg
- Diastolische Blutdruckwerte am 7. Versuchstag, Mittelwert ([1]; 2 Std): 67 mmHg
- Systolische Blutdruckwerte am 7. Versuchstag, Mittelwert ([1]; 2 Std): 106 mmHg
- Diastolische Blutdruckwerte am 7. Versuchstag, Mittelwert ([1]; 6 Std): 60 mmHg
- Systolische Blutdruckwerte am 7. Versuchstag, Mittelwert ([1]; 6 Std): 110 mmHg
- Diastolische Blutdruckwerte am 7. Versuchstag, Mittelwert ([1]; 8 Std): 65 mmHg
- Systolische Blutdruckwerte am 7. Versuchstag, Mittelwert ([1]; 8 Std): 108 mmHg
- Diastolische Blutdruckwerte am 7. Versuchstag, Mittelwert ([1]; 24 Std): 76 mmHg
- Systolische Blutdruckwerte am 7. Versuchstag, Mittelwert ([1]; 24 Std): 115 mmHg
- Diastolische Blutdruckwerte am 7. Versuchstag, Mittelwert ([1]; -2 Std): 72 mmHg
- Systolische Blutdruckwerte am 7. Versuchstag, Mittelwert ([1]; -2 Std): 111 mmHg
- Abfall des systolischen und diastolischen Blutdrucks [1]: ca. 7 mmHg
- Abnahme der Herzfrequenz ([1]; Monotherapie, 120 mg Propranolol, day 7): ca. 8 Schläge/Minute
- Blood pressure effect of additional Propranolol [3]: eine weitere Blutdrucksenkung
- mittlere Senkung des diastolischen Blutdrucks [2]: 9 mmHg
- Ansprechen (Senkung des diastolischen Blutdrucks auf unter 90 mmHg) [2]: 2 von 13 Patienten
